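Tested at 5 concentrations; 48 h exposure; 96-well plates; endpoints linearly interpolated, else capped at highest concentration. GI50: concentration for 50% inhibition of growth. TGI marks complete inhibition of growth.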
Columns and labels:
Test in all cases: NCI anticancer screen, dose series, 48 h
786-0 renal = tested on: 786-0 renal
CCRF-CEM leukemia = tested on: CCRF-CEM leukemia
HT29 colon = tested on: HT29 colon
MALME-3M melanoma = tested on: MALME-3M melanoma
NCI-H226 lung = tested on: NCI-H226 lung
OVCAR-5 ovarian = tested on: OVCAR-5 ovarian
PC-3 prostate = tested on: PC-3 prostate
SK-MEL-2 melanoma = tested on: SK-MEL-2 melanoma
SK-OV-3 ovarian = tested on: SK-OV-3 ovarian
UACC-62 melanoma = tested on: UACC-62 melanoma

Which results are given for `Cc1ccc(C2NC(=O)c3ccccc3N2)c(C)c1` (centres undefined)?
TGI (786-0 renal): 97.5 µM; TGI (CCRF-CEM leukemia): > 100 µM; TGI (HT29 colon): 34.9 µM; TGI (MALME-3M melanoma): > 69.1 µM; TGI (NCI-H226 lung): 47.8 µM; TGI (OVCAR-5 ovarian): > 86.5 µM; TGI (PC-3 prostate): > 40.2 µM; TGI (SK-MEL-2 melanoma): 37.8 µM; TGI (SK-OV-3 ovarian): > 100 µM; TGI (UACC-62 melanoma): > 100 µM

With `CN(C)c1ccc(/C=N/S(=O)(=O)c2ccc(-n3c(-c4ccccc4)nc4c(Br)cc(Br)cc4c3=O)cc2)cc1` as the molecule, how does the GI50 (786-0 renal) read?
Its GI50 is 55.7 µM.

And the TGI (786-0 renal)?
The TGI was > 100 µM.

And the GI50 (CCRF-CEM leukemia)?
The GI50 was 3.22 µM.

And the TGI (CCRF-CEM leukemia)?
Its TGI is > 100 µM.

And the GI50 (HT29 colon)?
The GI50 was 42.5 µM.

What about the TGI (HT29 colon) of the same molecule?
The TGI was > 100 µM.

What about the GI50 (MALME-3M melanoma) of the same molecule?
Its GI50 is 47.2 µM.

What about the TGI (MALME-3M melanoma) of the same molecule?
The TGI was > 89.7 µM.

And the GI50 (NCI-H226 lung)?
The GI50 was 53.8 µM.

And the TGI (NCI-H226 lung)?
The TGI was > 100 µM.

What about the GI50 (OVCAR-5 ovarian) of the same molecule?
Its GI50 is > 69.5 µM.

And the TGI (OVCAR-5 ovarian)?
The TGI was > 100 µM.

And the GI50 (PC-3 prostate)?
Its GI50 is 35.3 µM.

And the TGI (PC-3 prostate)?
Its TGI is > 88 µM.

And the GI50 (SK-MEL-2 melanoma)?
Its GI50 is 23.6 µM.

What about the TGI (SK-MEL-2 melanoma) of the same molecule?
Its TGI is > 96.1 µM.

And the GI50 (SK-OV-3 ovarian)?
Its GI50 is 47.2 µM.

What about the TGI (SK-OV-3 ovarian) of the same molecule?
The TGI was > 100 µM.

And the GI50 (UACC-62 melanoma)?
Its GI50 is 28.3 µM.

And the TGI (UACC-62 melanoma)?
Its TGI is > 92.8 µM.

How did the GI50 (786-0 renal) turn out when `CCCCCCNCc1cc(C(C)(C)C)cc(CNCCCCCC)c1O` was run?
Its GI50 is 1.77 µM.

And the TGI (786-0 renal)?
The TGI was 3.26 µM.

And the GI50 (CCRF-CEM leukemia)?
The GI50 was 1.69 µM.

What about the TGI (CCRF-CEM leukemia) of the same molecule?
The TGI was 4.26 µM.

And the GI50 (HT29 colon)?
Its GI50 is 1.75 µM.

What about the TGI (HT29 colon) of the same molecule?
Its TGI is 3.24 µM.

What about the GI50 (MALME-3M melanoma) of the same molecule?
Its GI50 is 1.74 µM.

And the TGI (MALME-3M melanoma)?
Its TGI is 3.43 µM.

What about the GI50 (NCI-H226 lung) of the same molecule?
Its GI50 is 1.69 µM.

What about the TGI (NCI-H226 lung) of the same molecule?
Its TGI is 3.36 µM.

And the GI50 (OVCAR-5 ovarian)?
Its GI50 is 1.54 µM.

What about the TGI (OVCAR-5 ovarian) of the same molecule?
The TGI was 2.88 µM.

And the GI50 (PC-3 prostate)?
The GI50 was 1.53 µM.

What about the TGI (PC-3 prostate) of the same molecule?
Its TGI is 2.9 µM.

And the GI50 (SK-MEL-2 melanoma)?
The GI50 was 1.98 µM.

What about the TGI (SK-MEL-2 melanoma) of the same molecule?
The TGI was 3.52 µM.

What about the GI50 (UACC-62 melanoma) of the same molecule?
The GI50 was 1.55 µM.

And the TGI (UACC-62 melanoma)?
The TGI was 2.91 µM.

Which results are given for `COc1ccc(-c2csc(NC(=O)CN3CCN(c4cc5c(cc4F)c(=O)c(C(=O)O)cn5C4CC4)CC3)n2)cc1`?
GI50 (786-0 renal): 3.6 µM; TGI (786-0 renal): 31.1 µM; GI50 (CCRF-CEM leukemia): 3.59 µM; TGI (CCRF-CEM leukemia): > 100 µM; GI50 (HT29 colon): 3.49 µM; TGI (HT29 colon): > 100 µM; GI50 (MALME-3M melanoma): 2.37 µM; TGI (MALME-3M melanoma): 7.49 µM; GI50 (NCI-H226 lung): 4.96 µM; TGI (NCI-H226 lung): > 100 µM; GI50 (PC-3 prostate): 3.82 µM; TGI (PC-3 prostate): > 100 µM; GI50 (SK-MEL-2 melanoma): 2.58 µM; TGI (SK-MEL-2 melanoma): 8.28 µM; GI50 (SK-OV-3 ovarian): 2.86 µM; TGI (SK-OV-3 ovarian): 8.32 µM; GI50 (UACC-62 melanoma): 4.18 µM; TGI (UACC-62 melanoma): > 100 µM

How did the TGI (786-0 renal) turn out when `Cc1cc(Cl)ccc1C(=O)c1ccc2ccccc2c1C(=O)O` was run?
Its TGI is > 100 µM.

What about the TGI (CCRF-CEM leukemia) of the same molecule?
The TGI was > 100 µM.

What about the TGI (HT29 colon) of the same molecule?
Its TGI is > 100 µM.

What about the TGI (MALME-3M melanoma) of the same molecule?
Its TGI is > 100 µM.

And the TGI (NCI-H226 lung)?
Its TGI is > 100 µM.

And the TGI (OVCAR-5 ovarian)?
Its TGI is > 100 µM.

And the TGI (PC-3 prostate)?
The TGI was > 100 µM.

And the TGI (SK-MEL-2 melanoma)?
Its TGI is > 100 µM.

What about the TGI (UACC-62 melanoma) of the same molecule?
The TGI was > 100 µM.

What does the source list for `CCOc1ccc2c(c1)c(CC(=O)O)cn2C`?
TGI (786-0 renal): > 100 µM; TGI (CCRF-CEM leukemia): > 100 µM; TGI (HT29 colon): > 100 µM; TGI (MALME-3M melanoma): > 100 µM; TGI (NCI-H226 lung): > 100 µM; TGI (PC-3 prostate): > 100 µM; TGI (SK-MEL-2 melanoma): > 100 µM; TGI (SK-OV-3 ovarian): > 100 µM; TGI (UACC-62 melanoma): > 100 µM
